Several values for one entry are separate records, joined by “and”; a condition that tells them apart may be missing. Identical values can stand only once.
Experiments:
[1] = molar enthalpy of vaporization or sublimation; details: 298.15 K; Crystal; Static calorimetry
[2] = Crystal, Calculated from knudsen effusion weight loss

O=[N+]([O-])c1ccccc1I [1-iodo-2-nitrobenzene]
Details | molar enthalpy [kcal/mol]
[1] | 21.5

[2]
Details | vapor or sublimation pressure
287.15 K | 8.2e-05 kPa and 8.5e-05 kPa
289.14 K | 0.000107 kPa and 0.000103 kPa
291.13 K | 0.000139 kPa and 0.000141 kPa and 0.000135 kPa
293.14 K | 0.000175 kPa and 0.000178 kPa and 0.000184 kPa
295.15 K | 0.000224 kPa and 0.000226 kPa and 0.00023 kPa
297.14 K | 0.000283 kPa and 0.000289 kPa and 0.000288 kPa
299.14 K | 0.000373 kPa and 0.000375 kPa and 0.000374 kPa
301.14 K | 0.000458 kPa and 0.000466 kPa and 0.000479 kPa
303.13 K | 0.000609 kPa and 0.000616 kPa
305.14 K | 0.000767 kPa and 0.000768 kPa and 0.000777 kPa
307.14 K | 0.000974 kPa and 0.000975 kPa and 0.000998 kPa

O=[N+]([O-])c1cccc(I)c1 [1-iodo-3-nitrobenzene]
Details | molar enthalpy [kcal/mol]
[1] | 21.4

[2]
Details | vapor or sublimation pressure
287.14 K | 0.000148 kPa and 0.000145 kPa
289.15 K | 0.000187 kPa and 0.000191 kPa
291.13 K | 0.000238 kPa
293.13 K | 0.000309 kPa and 0.000314 kPa
295.15 K | 0.000392 kPa and 0.0004 kPa
297.14 K | 0.000508 kPa and 0.000506 kPa
299.14 K | 0.000641 kPa and 0.000643 kPa
301.14 K | 0.000812 kPa
303.13 K | 0.001033 kPa and 0.001074 kPa

O=[N+]([O-])c1ccc(I)cc1 [1-iodo-4-nitrobenzene]
Details | molar enthalpy [kcal/mol]
[1] | 23.5

[2]
Details | vapor or sublimation pressure
311.18 K | 9.7e-05 kPa and 9.4e-05 kPa and 9.3e-05 kPa
313.17 K | 0.000121 kPa and 0.000114 kPa and 0.000118 kPa
315.11 K | 0.000151 kPa and 0.00015 kPa and 0.000152 kPa
317.18 K | 0.000179 kPa and 0.000193 kPa
319.13 K | 0.00023 kPa and 0.000226 kPa
321.1 K | 0.000282 kPa and 0.000277 kPa and 0.000283 kPa
323.18 K | 0.000355 kPa and 0.000354 kPa and 0.000359 kPa
325.18 K | 0.000451 kPa and 0.000436 kPa and 0.000455 kPa
327.12 K | 0.00055 kPa and 0.000546 kPa and 0.000552 kPa
329.18 K | 0.000672 kPa and 0.000673 kPa
331.18 K | 0.000856 kPa and 0.00083 kPa and 0.000857 kPa
333.11 K | 0.001045 kPa and 0.001036 kPa and 0.001018 kPa

— the NIST ThermoML archive (doi:10.1016/j.jct.2012.09.031)
